Test results: patent US12173018B2, “Penicillin-binding protein inhibitors” (priority 2018, dated 2024)
≈ marks a conversion by molar mass, not a printed value.

Experiments:
E. coli AG100 = test: Broth microdilution MIC, E. coli AG100 (wild-type parent); type: cell-based; settings: Escherichia coli; wild-type parent E. coli AG100, broth microdilution; read-out: MIC E. coli AG100
In short: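 Broth microdilution in cation-supplemented Mueller-Hinton broth, 2-fold serial compound dilutions, inoculum 5×10^5 CFU/mL from 3-5 h log culture.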

E. coli 901C = test: microbe, parasite or virus in culture; type: cell-based; settings: Escherichia coli; hyper-permeable E. coli 901C, broth microdilution; read-out: MIC E. coli 901C
In short: (§1)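 Visual MIC readout after 16-20 h at 37° C in CLSI-format microdilution. Compounds tested as 2-fold series against a 5×10^5 CFU/mL inoculum in cation-supplemented Mueller-Hinton broth.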

E. coli AG100A = test: microbe, parasite or virus in culture; type: cell-based; settings: Escherichia coli, read-out: MIC E. coli AG100A
In short: as §1

[1] = tested on: P. aeruginosa (ΔmexAB-oprM); test: microbe, parasite or virus in culture; type: cell-based; settings: Pseudomonas aeruginosa, read-out: MIC P. aeruginosa ΔmexAB-OprM
In short: as §1

E. coli D22 = test: microbe, parasite or virus in culture; type: cell-based; settings: Escherichia coli; hyper-permeable E. coli D22, broth microdilution; read-out: MIC E. coli D22
In short: as §1

P. aeruginosa ATCC 35151 = test: microbe, parasite or virus in culture; type: cell-based; settings: Pseudomonas aeruginosa, ATCC35151; hyper-permeable P. aeruginosa ATCC 35151; read-out: MIC P. aeruginosa ATCC 35151
In short: as §1

A. baumannii ATCC 19606 = test: Broth microdilution MIC, A. baumannii ATCC 19606; type: cell-based; settings: Acinetobacter baumannii, ATCC19606; A. baumannii ATCC 19606, broth microdilution; read-out: MIC A. baumannii ATCC 19606
In short: as §1

P. aeruginosa PAO1 = test: Broth microdilution MIC, P. aeruginosa PAO1; type: cell-based; settings: Pseudomonas aeruginosa; P. aeruginosa PAO1, broth microdilution; read-out: MIC P. aeruginosa PAO1
In short: as §1

[2] = tested on: N. gonorrhoeae ATCC 49226; test: Liquid broth MIC, N. gonorrhoeae ATCC 49226; type: cell-based; settings: Neisseria gonorrhoeae, ATCC49226; N. gonorrhoeae ATCC 49226, liquid broth; read-out: Minimum Inhibitory Concentration, N. gonorrhoeae ATCC 49226
In short: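 In liquid broth, wild-type reference gonococci at 5×10^5 CFU/mL faced twofold compound dilutions for 40-42 hours (36° C, 5% CO2). The MIC was the lowest concentration with no growth seen by eye.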

K. pneumoniae 848844 = test: microbe, parasite or virus in culture; type: cell-based, Klebsiella pneumoniae; settings: Klebsiella pneumoniae; K. pneumoniae 848844 producing SHV-11 and KPC-2; read-out: MIC K. pneumoniae 848844
In short: as §1

Structure (SMILES)	MIC (E. coli AG100)	MIC (E. coli 901C)	MIC (E. coli AG100A)	MIC [1]	MIC (E. coli D22)	MIC (P. aeruginosa ATCC 35151)	MIC (A. baumannii ATCC 19606)	MIC (P. aeruginosa PAO1)	MIC [2]	MIC (K. pneumoniae 848844)
CCN1CCN(C(=O)NC(C(=O)N[C@H]2Cc3cccc(C(=O)O)c3OB2O)c2ccc(O)c(O)c2F)C(=O)C1=O (stereo partly drawn) [Example 70]	2 to 4 µg/mL	0.5 to 1 µg/mL	0.5 to 1 µg/mL	0.5 to 1 µg/mL	2 to 4 µg/mL	< 0.25 µg/mL	0.5 to 1 µg/mL	8 to 16 µg/mL	0.25 to 0.5 µg/mL (≈ 0.448 to 0.896 µM)	8 to 16 µg/mL
CCN1CCN(C(=O)NC(C(=O)N[C@H]2Cc3ccc(F)c(C(=O)O)c3OB2O)c2ccc(O)c(O)c2Cl)C(=O)C1=O (stereo partly drawn) [Example 124, (3R)-3-(2-(2-chloro-3,4-dihydroxyphenyl)-2-(4-ethyl-2,3-dioxopiperazine-1-carboxamido)acetamido)-7-fluoro-2-hydroxy-3,4-dihydro-2H-benzo[e][1,2]oxaborinine-8-carboxylic acid]	0.5 to 1 µg/mL	< 0.25 µg/mL	0.5 to 1 µg/mL	< 0.25 µg/mL	0.5 to 1 µg/mL	< 0.25 µg/mL	0.5 to 1 µg/mL	0.5 to 1 µg/mL	1 to 2 µg/mL (≈ 1.69 to 3.37 µM)	> 128 µg/mL
O=C(O)c1c(F)ccc2c1OB(O)[C@@H](NC(=O)C(NC(=O)N1CCN(CCF)C(=O)C1=O)c1ccc(O)c(O)c1Cl)C2 (stereo partly drawn) [Example 131]	8 to 16 µg/mL	0.5 to 1 µg/mL	2 to 4 µg/mL	< 0.25 µg/mL	2 to 4 µg/mL	< 0.25 µg/mL	8 to 16 µg/mL	0.5 to 1 µg/mL	4 to 8 µg/mL (≈ 6.55 to 13.1 µM)	32 to 64 µg/mL
CCN1CCN(C(=O)NC(C(=O)N[C@H]2Cc3ccc(F)c(C(=O)O)c3OB2O)c2cc(O)c(O)cc2F)C(=O)C1=O (stereo partly drawn) [Example 136, (3R)-3-(2-(4-ethyl-2,3-dioxopiperazine-1-carboxamido)-2-(2-fluoro-4,5-dihydroxyphenyl)acetamido)-7-fluoro-2-hydroxy-3,4-dihydro-2H-benzo[e][1,2]oxaborinine-8-carboxylic acid]	2 to 4 µg/mL	0.5 to 1 µg/mL	2 to 4 µg/mL	0.5 to 1 µg/mL	2 to 4 µg/mL	0.5 to 1 µg/mL	2 to 4 µg/mL	8 to 16 µg/mL	1 to 2 µg/mL (≈ 1.74 to 3.47 µM)	32 to 64 µg/mL
CCN1CCN(C(=O)NC(C(=O)N[C@H]2Cc3ccc(F)c(C(=O)O)c3OB2O)c2ncc(O)cc2F)C(=O)C1=O (stereo partly drawn) [Example 145, (3R)-3-(2-(4-ethyl-2,3-dioxopiperazine-1-carboxamido)-2-(3-fluoro-5-hydroxypyridin-2-yl)acetamido)-7-fluoro-2-hydroxy-3,4-dihydro-2H-benzo[e][1,2]oxaborinine-8-carboxylic acid]	8 to 16 µg/mL	0.5 to 1 µg/mL	2 to 4 µg/mL	8 to 16 µg/mL	2 to 4 µg/mL	8 to 16 µg/mL	> 128 µg/mL	> 128 µg/mL	0.25 to 0.5 µg/mL (≈ 0.445 to 0.891 µM)	32 to 64 µg/mL
CCN1CCN(C(=O)NC(C(=O)N[C@H]2Cc3ccc(F)c(C(=O)O)c3OB2O)c2ccc(O)c(O)c2F)C(=O)C1=O (stereo partly drawn) [Example 149, (3R)-3-(2-(4-ethyl-2,3-dioxopiperazine-1-carboxamido)-2-(2-fluoro-3,4-dihydroxyphenyl)acetamido)-7-fluoro-2-hydroxy-3,4-dihydro-2H-benzo[e][1,2]oxaborinine-8-carboxylic acid]	2 to 4 µg/mL	0.5 to 1 µg/mL	0.5 to 1 µg/mL	< 0.25 µg/mL	2 to 4 µg/mL	< 0.25 µg/mL	8 to 16 µg/mL	2 to 4 µg/mL	1 to 2 µg/mL (≈ 1.74 to 3.47 µM)	2 to 4 µg/mL
CCN1CCN(C(=O)NC(C(=O)N[C@H]2Cc3cccc(C(=O)O)c3OB2O)c2ncc(O)cc2Cl)C(=O)C1=O (stereo partly drawn) [Example 150, (3R)-3-(2-(4-ethyl-2,3-dioxopiperazine-1-carboxamido)-2-(3-chloro-5-hydroxypyridin-2-yl)acetamido)-2-hydroxy-3,4-dihydro-2H-benzo[e][1,2]oxaborinine-8-carboxylic acid]	32 to 64 µg/mL	0.5 to 1 µg/mL	2 to 4 µg/mL	32 to 64 µg/mL	2 to 4 µg/mL	2 to 4 µg/mL	> 128 µg/mL	> 128 µg/mL	4 to 8 µg/mL (≈ 7.15 to 14.3 µM)	> 128 µg/mL
CCN1CCN(C(=O)NC(C(=O)N[C@H]2Cc3ccc(F)c(C(=O)O)c3OB2O)c2ncc(O)cc2Cl)C(=O)C1=O (stereo partly drawn) [Example 151, (3R)-3-(2-(3-chloro-5-hydroxypyridin-2-yl)-2-(4-ethyl-2,3-dioxopiperazine-1-carboxamido)acetamido)-7-fluoro-2-hydroxy-3,4-dihydro-2H-benzo[e][1,2]oxaborinine-8-carboxylic acid]	32 to 64 µg/mL	0.5 to 1 µg/mL	8 to 16 µg/mL	8 to 16 µg/mL	8 to 16 µg/mL	< 0.25 µg/mL	> 128 µg/mL	> 128 µg/mL	1 to 2 µg/mL (≈ 1.73 to 3.46 µM)	> 128 µg/mL
CCN1CCN(C(=O)N[C@@H](C(=O)N[C@H]2Cc3ccc(F)c(C(=O)O)c3OB2O)c2ccc(O)c(F)c2)C(=O)C1=O [Example 161, (R)-3-((R)-2-(4-ethyl-2,3-dioxopiperazine-1-carboxamido)-2-(3-fluoro-4-hydroxyphenyl)acetamido)-7-fluoro-2-hydroxy-3,4-dihydro-2H-benzo[e][1,2]oxaborinine-8-carboxylic acid]	> 128 µg/mL	0.5 to 1 µg/mL	32 to 64 µg/mL	8 to 16 µg/mL	2 to 4 µg/mL	< 0.25 µg/mL	> 128 µg/mL	> 128 µg/mL	1 to 2 µg/mL (≈ 1.78 to 3.57 µM)	> 128 µg/mL
CCN1CCN(C(=O)N[C@@H](C(=O)N[C@H]2Cc3cccc(C(=O)O)c3OB2O)c2ncc(O)cc2F)C(=O)C1=O [Example 177, (R)-3-((R)-2-(4-ethyl-2,3-dioxopiperazine-1-carboxamido)-2-(3-fluoro-5-hydroxypyridin-2-yl)acetamido)-2-hydroxy-3,4-dihydro-2H-benzo[e][1,2]oxaborinine-8-carboxylic acid]	8 to 16 µg/mL	< 0.25 µg/mL	0.5 to 1 µg/mL	2 to 4 µg/mL	0.5 to 1 µg/mL	0.5 to 1 µg/mL	> 128 µg/mL	> 128 µg/mL	4 to 8 µg/mL (≈ 7.36 to 14.7 µM)	32 to 64 µg/mL
CCN1CCN(C(=O)NC(C(=O)N[C@H]2Cc3ccc(F)c(C(=O)O)c3OB2O)c2ccc(S(N)(=O)=O)cc2)C(=O)C1=O (stereo partly drawn) [Example 181, (3R)-3-(2-(4-ethyl-2,3-dioxopiperazine-1-carboxamido)-2-(4-sulfamoylphenyl)acetamido)-7-fluoro-2-hydroxy-3,4-dihydro-2H-benzo[e][1,2]oxaborinine-8-carboxylic acid]	> 128 µg/mL	0.5 to 1 µg/mL	32 to 64 µg/mL	8 to 16 µg/mL	8 to 16 µg/mL	0.5 to 1 µg/mL	> 128 µg/mL	> 128 µg/mL	4 to 8 µg/mL (≈ 6.61 to 13.2 µM)	32 to 64 µg/mL
NS(=O)(=O)c1ccc(C(NC(=O)N2CCN(CCF)C(=O)C2=O)C(=O)N[C@H]2Cc3ccc(F)c(C(=O)O)c3OB2O)cc1 (stereo partly drawn) [Example 182, (3R)-7-fluoro-3-(2-(4-(2-fluoroethyl)-2,3-dioxopiperazine-1-carboxamido)-2-(4-sulfamoylphenyl)acetamido)-2-hydroxy-3,4-dihydro-2H-benzo[e][1,2]oxaborinine-8-carboxylic acid]	> 128 µg/mL	0.5 to 1 µg/mL	32 to 64 µg/mL	8 to 16 µg/mL	2 to 4 µg/mL	0.5 to 1 µg/mL	> 128 µg/mL	> 128 µg/mL	4 to 8 µg/mL (≈ 6.42 to 12.8 µM)	> 128 µg/mL
